Patent US6737383B1, “Herbicidal oxadiazolidines” (priority 1999, dated 2004)

What was measured:
smallflower flatsedge = assay: Test B flood test smallflower flatsedge; assay type: in vivo, Cyperus difformis
Summary of the method: (§1)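 Read-out is a visual response score from 0 (no effect) to 10 (complete control), assigned by comparison with untreated controls. Treatment was applied at the 2-leaf stage, and plants stayed in the greenhouse for twelve to sixteen days before scoring.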

bedstraw = assay: Test B pre/postemergence bedstraw; assay type: in vivo, Galium aparine; conditions: Postemergence, Rate 125 g/ha; scale 0 to 10, 0 is no effect, 10 is complete control
Summary of the method: (§2)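 Test chemicals in a non-phytotoxic solvent mixture with surfactant were sprayed preemergence onto planted seeds and postemergence onto plants 2 to 18 cm tall (1- to 4-leaf stage). After twelve to sixteen days in a greenhouse, injury was visually rated against untreated controls from 0 (no effect) to 10 (complete control).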

morningglory = assay: Test B pre/postemergence morningglory; assay type: in vivo, Ipomoea hederacea
Summary of the method: as §2

crabgrass = assay: Test B pre/postemergence crabgrass; assay type: in vivo, Digitaria sanguinalis
Summary of the method: as §2

bamyardgrass = assay: Test B flood test barnyardgrass; assay type: in vivo, Echinochloa crus-galli
Summary of the method: as §1

purple nutsedge = assay: Test B pre/postemergence purple nutsedge; assay type: in vivo, Cyperus rotundus
Summary of the method: as §2

rice = assay: Test B flood test rice; assay type: in vivo, Oryza sativa
Summary of the method: as §1

giant foxtail = assay: Test B pre/postemergence giant foxtail; assay type: in vivo, Setaria faberii
Summary of the method: as §2

sugar beet = assay: Test B pre/postemergence sugar beet; assay type: in vivo, Beta vulgaris
Summary of the method: as §2

blackgrass = assay: Test B pre/postemergence blackgrass; assay type: in vivo, Alopecurus myosuroides
Summary of the method: as §2

pigweed = assay: Test B pre/postemergence pigweed; assay type: in vivo, Amaranthus retroflexus
Summary of the method: as §2

corn = assay: Test B pre/postemergence corn; assay type: in vivo, Zea mays
Summary of the method: as §2

duck salad = assay: Test B flood test duck salad; assay type: in vivo, Heteranthera limosa
Summary of the method: as §1

surinam grass = assay: Test B pre/postemergence surinam grass; assay type: in vivo, Brachiaria decumbens
Summary of the method: as §2

rape = assay: Test B pre/postemergence rape; assay type: in vivo, Brassica napus
Summary of the method: as §2

cocklebur = assay: Test B pre/postemergence cocklebur; assay type: in vivo, Xanthium strumarium
Summary of the method: as §2

wild oat = assay: Test B pre/postemergence wild oat; assay type: in vivo, Avena fatua
Summary of the method: as §2

wheat = assay: Test B pre/postemergence wheat; assay type: in vivo, Triticum aestivum
Summary of the method: as §2

velvetleaf = assay: Test B pre/postemergence velvetleaf; assay type: in vivo, Abutilon theophrasti
Summary of the method: as §2

soybean = assay: Test B pre/postemergence soybean; assay type: in vivo, Glycine max
Summary of the method: as §2

[1] = Rate 62 g/ha, flood test species, Pre-emergence, visual evaluation after twelve to sixteen days
[2] = Rate 125 g/ha, under heading Pre-emergence, flood test species, visual evaluation after twelve to sixteen days
[3] = Rate 250 g/ha, Pre-emergence (flood test species), scale 0 to 10, 0 is no effect, 10 is complete control
[4] = Rate 500 g/ha, Pre-emergence section of Table B, 0 to 10 scale (0 no effect, 10 complete control)
[5] = Postemergence, Rate 125 g/ha, scale 0 to 10, 0 is no effect, 10 is complete control
[6] = Postemergence, Rate 500 g/ha, scale 0 to 10, 0 is no effect, 10 is complete control
[7] = Preemergence, Rate 62 g/ha, scale of 0 to 10 where 0 is no effect and 10 is complete control
[8] = Preemergence, Rate 125 g/ha, scale 0 to 10, 0 is no effect, 10 is complete control
[9] = Preemergence, Rate 500 g/ha, scale 0 to 10, 0 is no effect, 10 is complete control
[10] = Rate 62 g/ha, Postemergence, scale 0 to 10 (0 no effect, 10 complete control)
[11] = Postemergence, Rate 250 g/ha, scale 0 to 10
[12] = Preemergence, Rate 250 g/ha, scale 0 to 10, 0 is no effect, 10 is complete control

Compound: CC(C)N(C(=O)n1oc(=O)n(CC(=O)C2CC2)c1=O)c1ccc(F)cc1F [Compound 490]
- Plant response rating, S. Flatsedge (0 to 10 scale, 0 is no effect, 10 is complete control) (smallflower flatsedge; [1]): 0
- S. Flatsedge plant response rating (0 to 10 scale, 0 is no effect, 10 is complete control) (smallflower flatsedge; [2]): 0
- S. Flatsedge plant response rating (smallflower flatsedge; [3]): 0
- S. Flatsedge plant response rating (smallflower flatsedge; [4]): 0
- Bedstraw plant response rating (bedstraw): 3
- Morningglory plant response rating (morningglory; [5]): 3
- Plant response rating, Morningglory (morningglory; [6]): 3
- Plant response rating, Morningglory (morningglory; [7]): 0
- Morningglory plant response rating (morningglory; [8]): 0
- Morningglory plant response rating (morningglory; [9]): 0
- Morningglory plant response rating (morningglory; [10]): 2
- Crabgrass plant response rating (crabgrass; [5]): 6
- Crabgrass plant response rating (crabgrass; [11]): 6
- Plant response rating, Crabgrass (crabgrass; [6]): 7
- Plant response rating, Crabgrass (crabgrass; [7]): 8
- Crabgrass plant response rating (crabgrass; [8]): 9
- Crabgrass plant response rating (crabgrass; [9]): 10
- Crabgrass plant response rating (crabgrass; [10]): 3
- Plant response rating, Barnyardgrass (0 to 10 scale, 0 is no effect, 10 is complete control) (bamyardgrass; [1]): 0
- Barnyardgrass plant response rating (0 to 10 scale, 0 is no effect, 10 is complete control) (bamyardgrass; [2]): 0
- Barnyardgrass plant response rating (bamyardgrass; [3]): 0
- Barnyardgrass plant response rating (bamyardgrass; [4]): 0
- Nutsedge plant response rating (purple nutsedge; [5]): 0
- Plant response rating, Nutsedge (purple nutsedge; [6]): 0
- Plant response rating, Nutsedge (purple nutsedge; [7]): 0
- Nutsedge plant response rating (purple nutsedge; [8]): 0
- Nutsedge plant response rating (purple nutsedge; [9]): 0
- Nutsedge plant response rating (purple nutsedge; [10]): 0
- Plant response rating, Rice (0 to 10 scale, 0 is no effect, 10 is complete control) (rice; [1]): 0
- Rice plant response rating (0 to 10 scale, 0 is no effect, 10 is complete control) (rice; [2]): 0
- Rice plant response rating (rice; [3]): 0
- Rice plant response rating (rice; [4]): 0
- Giant foxtail plant response rating (giant foxtail; [5]): 8
- Plant response rating, Giant foxtail (giant foxtail; [6]): 8
- Plant response rating, Giant foxtail (giant foxtail; [7]): 9
- Giant foxtail plant response rating (giant foxtail; [8]): 9
- Giant foxtail plant response rating (giant foxtail; [9]): 10
- Giant foxtail plant response rating (giant foxtail; [10]): 2
- Sugarbeets plant response rating (sugar beet; [5]): 0
- Plant response rating, Sugarbeets (sugar beet; [6]): 0
- Plant response rating, Sugarbeets (sugar beet; [7]): 0
- Sugarbeets plant response rating (sugar beet; [8]): 0
- Sugarbeets plant response rating (sugar beet; [9]): 5
- Sugarbeets plant response rating (sugar beet; [10]): 0
- Blackgrass plant response rating (blackgrass; [5]): 4
- Plant response rating, Blackgrass (blackgrass; [6]): 5
- Plant response rating, Blackgrass (blackgrass; [7]): 7
- Blackgrass plant response rating (blackgrass; [8]): 8
- Blackgrass plant response rating (blackgrass; [12]): 9
- Blackgrass plant response rating (blackgrass; [9]): 9
- Blackgrass plant response rating (blackgrass; [10]): 2
- Redroot pigweed plant response rating (pigweed; [5]): 0
- Plant response rating, Redroot pigweed (pigweed; [6]): 2
- Plant response rating, Redroot pigweed (pigweed; [7]): 5
- Redroot pigweed plant response rating (pigweed; [8]): 7
- Redroot pigweed plant response rating (pigweed; [9]): 8
- Redroot pigweed plant response rating (pigweed; [10]): 0
- Corn plant response rating (corn; [5]): 0
- Corn plant response rating (corn; [11]): 0
- Plant response rating, Corn (corn; [6]): 0
- Plant response rating, Corn (corn; [7]): 0
- Corn plant response rating (corn; [8]): 0
- Corn plant response rating (corn; [9]): 5
- Corn plant response rating (corn; [10]): 0
- Plant response rating, Ducksalad (0 to 10 scale, 0 is no effect, 10 is complete control) (duck salad; [1]): 0
- Ducksalad plant response rating (0 to 10 scale, 0 is no effect, 10 is complete control) (duck salad; [2]): 0
- Ducksalad plant response rating (duck salad; [3]): 0
- Ducksalad plant response rating (duck salad; [4]): 0
- B. signalgrass plant response rating (surinam grass; [5]): 4
- B. signalgrass plant response rating (surinam grass; Postemergence, Rate 250 g/ha, scale 0 to 10, 0 no effect, 10 complete control): 4
- Plant response rating, B. signalgrass (surinam grass; [6]): 7
- Plant response rating, B. signalgrass (surinam grass; [7]): 3
- B. signalgrass plant response rating (surinam grass; [8]): 5
- B. signalgrass plant response rating (surinam grass; [12]): 6
- B. signalgrass plant response rating (surinam grass; [9]): 8
- B. signalgrass plant response rating (surinam grass; [10]): 2
- Rape plant response rating (rape; [5]): 0
- Plant response rating, Rape (rape; [6]): 0
- Plant response rating, Rape (rape; [7]): 0
- Rape plant response rating (rape; [8]): 1
- Rape plant response rating (rape; [9]): 8
- Rape plant response rating (rape; [10]): 0
- Cocklebur plant response rating (cocklebur; [5]): 0
- Cocklebur plant response rating (cocklebur; [11]): 0
- Plant response rating, Cocklebur (cocklebur; [6]): 0
- Cocklebur plant response rating (cocklebur; [8]): 0
- Cocklebur plant response rating (cocklebur; [12]): 0
- Cocklebur plant response rating (cocklebur; [10]): 0
- Wild oats plant response rating (wild oat; [5]): 5
- Plant response rating, Wild oats (wild oat; [6]): 7
- Plant response rating, Wild oats (wild oat; [7]): 6
- Wild oats plant response rating (wild oat; [8]): 7
- Wild oats plant response rating (wild oat; [9]): 8
- Wild oats plant response rating (wild oat; [10]): 5
- Wheat plant response rating (wheat; [5]): 0
- Plant response rating, Wheat (wheat; [6]): 0
- Plant response rating, Wheat (wheat; [7]): 0
- Wheat plant response rating (wheat; [8]): 0
- Wheat plant response rating (wheat; [9]): 4
- Wheat plant response rating (wheat; [10]): 0
- Velvetleaf plant response rating (velvetleaf; [5]): 0
- Plant response rating, Velvetleaf (velvetleaf; [6]): 1
- Plant response rating, Velvetleaf (velvetleaf; [7]): 0
- Velvetleaf plant response rating (velvetleaf; [8]): 0
- Velvetleaf plant response rating (velvetleaf; [9]): 4
- Velvetleaf plant response rating (velvetleaf; [10]): 0
- Soybean plant response rating (soybean; [5]): 5
- Plant response rating, Soybean (soybean; [6]): 6
- Plant response rating, Soybean (soybean; [7]): 0
- Soybean plant response rating (soybean; [8]): 0
- Soybean plant response rating (soybean; [9]): 4
- Soybean plant response rating (soybean; [10]): 4
